Assay results from US7354739B2, “TML polynucleotides” (ZymoGenetics, Inc., priority 1997, dated 2008).

How the values were obtained:
[1] = system: antral portion of the stomach; experiment: Antral stomach contractions monitored by transducing crystals in anesthetized rats; type: in vivo, Sprague-Dawley rats
Excerpt: Two male Sprague-Dawley rats, approximately 12 weeks old (Harlan, Indianapolis, Ind.) were anesthetized with urethane and their stomachs were exposed through a small abdominal incision. Two 2.4 mm transducing crystals (Sonometrics, Ontario, Canada) were placed on the antral portion of the stomach such that circular contractions could be monitored as a change in the distance between the two crystals. The crystals were attached with VETBOND TISSUE ADHESIVE (3M, St. Paul, Minn.).
The amplitude of the NE-induced decrease was approximately 50% of the acetylcholine-induced increase in distance. Both responses were transient.
A negative control of 10 μl of phosphate buffer solution (PBS) applied topically between the crystals had no effect.
A 14 amino acid zsig33 peptide (from amino acid residue 24 (Gly) to amino acid residue 37 (Gln) of SEQ ID NO: 2) was dissolved in PBS) and 10 μl was applied topically for a final concentration of 1 μg, […]

[2] = system: post-prandial glucose absorption; experiment: Oral glucose challenge after oral zsig33 peptide in ob/ob mice; type: in vivo; details: 100 μg orally, 30 minutes prior to an oral glucose challenge
Protocol: Eight female ob/ob mice, approximately 6 weeks old (Jackson Labs, Bar Harbor, Me.) were adapted to a 4 hour daily feeding schedule for two weeks. After two weeks on the feeding schedule, the mice were give 100 μg of a 14 amino acid amino zsig33 peptide (from amino acid residue 24 (Gly) to amino acid residue 37 (Gln) of SEQ ID NO: 2) in 100 μl sterile 0.1% BSA by oral gavage, immediately after their eating period (post-prandially). Thirty minutes later, the mice were challenged orally with a 0.5 ml volume of 25% glucose. Retroorbital bleeds were done to determine serum glucose levels. Blood was drawn prior to zsig33 dosing, prior to oral glucose challenge, and at 1, 2, 4, and 20 hours following the glucose challenge.

stomach = experiment: Transit of phenol red through the stomach (gastric emptying) of fasted rats; type: in vivo, Sprague-Dawley rats; details: 1 μg applied topically to the stomach; 30 minutes after gavage; compared to a scrambled peptide
Protocol: The effect of topically applied zsig33 peptide (amino acid 24 to 37 of SEQ ID NO: 2) on the transit of phenol red through the stomachs of fasted male Sprague-Dawley rats (Harlan, Indianapolis, Ind.) was evaluated. The rats (6 animals, 8 weeks old) were fasted 24 hrs prior to being anesthetized with urethane(0.5 ml/100 grams of 25% solution). After anesthetizing, the animals were orally gavaged with 1 ml of Phenol Red solution (50 mg/ml in 2% methylcellulose solution). The stomach of each animal was exposed through a small abdominal incision and either 1 μg zsig33 peptide or a 14 amino acid control of a scrambled sequence peptide was applied topically to the stomach five minutes following the gavage. The amount of Phenol Red remaining in the stomach was determined by measuring optical density of the extracted stomach contents 30 minutes after the gavage.

[3] = Fourteen-day twice-daily oral dosing in ob/ob mice: body weight, food intake, glucose clearance; type: in vivo; details: 1 μg/mouse orally twice daily for fourteen days
Protocol: Sixteen female ob/ob mice, 8 weeks old, (Jackson Labs, Bar Harbor, Me.) were adapted to a special 4 hour daily feeding schedule for two weeks. The were fed ad libitum from 7:30-11:30 am daily. After two weeks on the feeding schedule, the mice were divided into two groups of 8. One group was given 1.0 μg/mouse of zsig33-1 (14 amino acid peptide) and the other vehicle (a 14 amino acid scrambled sequence peptide) in 100 μl sterile 0.1% BSQA by oral gavage just prior to receiving food, and at the end of the 4 hour feeding period. The mice were […] twice daily for fourteen days, during which time food intake and body weight was measured daily. On day 14, immediately after the second oral gavage of the zsig33-1 peptide, the mice were challenged orally with an 0.5 ml volume of 25% glucose. Retro-orbital bleeds were done to determine serum glucose levels immediately prior to administration of the zsig33-1 peptide or vehicle ([…].), and also at 0, 1, 2, and 4 hours following the glucose challenge.

Compound | amplitude of the NE-induced decrease relative to the acetylcholine-induced increase in distance ([1]; 10 μl of 1 μM applied topically) | change in the distance between the two crystals ([1]; 10 μl of 1 μM applied topically to the stomach between the crystals) | change in crystal distance ([1]; 1 μg in 10 μl PBS applied topically) | rate and amplitude of the contractions (dose dependence) ([1]; 10 μg and 100 μg applied topically, compared with 1 μg) | post-prandial glucose absorption (serum glucose) [2] | reduction of the amount of Phenol Red remaining in the stomach (stomach) | daily body weight [3] | food intake [3]
NC[C@H](O)c1ccc(O)c(O)c1 [norepinephrine, reference compound] | approximately 50% | reduction in the distance between the two crystals |  |  |  |  |  | 
zsig33-1: peptide corresponding to amino acid residue 24 (Gly) to residue 37 (Gln) of SEQ ID NO: 2; residues 1 to 14 of SEQ ID NO:11 (GSSFLSPEHQRVQQRKES; listed as Homo sapiens) |  |  | sustained, rhythmic increase and decrease in crystal distance | enhanced responses in both rate and amplitude | enhanced post-prandial glucose absorption | approximately 25% | no affect | no affect
